From PubChem BioAssay AID1671295

Target: Receptor tyrosine-protein kinase erbB-4 (Homo sapiens) (UniProt Q15303)
Assay: ERBB4 kinase inhibitors, dose response, biochemical, Z'-LYTE FRET, direct format, recombinant human (AID 1671295)
Details: Z'-LYTE FRET kinase activity

Receptor tyrosine-protein kinase erbB-4 (Homo sapiens), sequence (Q15303 whole entry, looked up): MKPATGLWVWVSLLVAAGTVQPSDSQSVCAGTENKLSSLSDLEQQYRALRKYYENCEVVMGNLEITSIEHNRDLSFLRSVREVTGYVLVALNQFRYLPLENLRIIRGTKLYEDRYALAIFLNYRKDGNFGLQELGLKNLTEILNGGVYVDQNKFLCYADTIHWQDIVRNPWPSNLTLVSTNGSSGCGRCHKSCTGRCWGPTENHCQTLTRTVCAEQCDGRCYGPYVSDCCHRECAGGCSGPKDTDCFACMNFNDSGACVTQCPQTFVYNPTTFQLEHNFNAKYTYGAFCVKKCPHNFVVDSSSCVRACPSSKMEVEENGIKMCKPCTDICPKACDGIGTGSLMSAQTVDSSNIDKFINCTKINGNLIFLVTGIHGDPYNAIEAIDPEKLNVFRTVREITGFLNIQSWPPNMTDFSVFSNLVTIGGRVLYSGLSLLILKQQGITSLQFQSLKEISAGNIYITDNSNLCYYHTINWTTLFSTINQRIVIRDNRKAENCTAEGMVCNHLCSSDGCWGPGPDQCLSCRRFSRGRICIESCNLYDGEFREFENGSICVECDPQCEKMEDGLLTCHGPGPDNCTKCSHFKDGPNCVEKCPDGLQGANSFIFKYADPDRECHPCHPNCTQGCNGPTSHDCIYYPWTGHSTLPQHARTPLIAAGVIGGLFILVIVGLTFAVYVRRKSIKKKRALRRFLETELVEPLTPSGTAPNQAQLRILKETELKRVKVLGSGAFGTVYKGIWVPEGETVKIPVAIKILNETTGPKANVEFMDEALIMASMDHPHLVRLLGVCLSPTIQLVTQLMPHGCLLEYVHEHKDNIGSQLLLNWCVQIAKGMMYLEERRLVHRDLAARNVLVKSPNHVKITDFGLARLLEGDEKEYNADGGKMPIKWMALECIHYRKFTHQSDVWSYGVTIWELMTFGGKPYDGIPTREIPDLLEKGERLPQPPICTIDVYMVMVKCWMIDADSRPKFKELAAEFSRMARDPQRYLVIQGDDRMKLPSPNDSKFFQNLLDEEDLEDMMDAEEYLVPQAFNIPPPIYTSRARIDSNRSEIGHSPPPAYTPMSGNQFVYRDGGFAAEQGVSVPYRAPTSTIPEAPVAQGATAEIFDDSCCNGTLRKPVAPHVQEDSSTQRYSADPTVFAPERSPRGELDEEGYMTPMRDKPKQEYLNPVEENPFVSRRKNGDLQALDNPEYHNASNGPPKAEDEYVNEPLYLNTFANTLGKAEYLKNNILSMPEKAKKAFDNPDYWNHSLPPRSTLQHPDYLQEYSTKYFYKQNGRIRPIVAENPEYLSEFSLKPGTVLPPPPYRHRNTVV

IC50: 154 nM
Structure (SMILES): COc1cc2ncnc(Nc3cccc(Cl)c3)c2cc1OC
